IC50 data for 22 compounds are collected here from patent US8143290B2, “Chemical compounds 572” (AstraZeneca AB, priority 2006, dated 2012).

The target in this assay is T1, recombinant human GR (Homo sapiens, UniProt P04150).
T1 construct: purchased Panvera/Invitrogen P2812 (kit P2893)
T1 sequence (P04150 1-777): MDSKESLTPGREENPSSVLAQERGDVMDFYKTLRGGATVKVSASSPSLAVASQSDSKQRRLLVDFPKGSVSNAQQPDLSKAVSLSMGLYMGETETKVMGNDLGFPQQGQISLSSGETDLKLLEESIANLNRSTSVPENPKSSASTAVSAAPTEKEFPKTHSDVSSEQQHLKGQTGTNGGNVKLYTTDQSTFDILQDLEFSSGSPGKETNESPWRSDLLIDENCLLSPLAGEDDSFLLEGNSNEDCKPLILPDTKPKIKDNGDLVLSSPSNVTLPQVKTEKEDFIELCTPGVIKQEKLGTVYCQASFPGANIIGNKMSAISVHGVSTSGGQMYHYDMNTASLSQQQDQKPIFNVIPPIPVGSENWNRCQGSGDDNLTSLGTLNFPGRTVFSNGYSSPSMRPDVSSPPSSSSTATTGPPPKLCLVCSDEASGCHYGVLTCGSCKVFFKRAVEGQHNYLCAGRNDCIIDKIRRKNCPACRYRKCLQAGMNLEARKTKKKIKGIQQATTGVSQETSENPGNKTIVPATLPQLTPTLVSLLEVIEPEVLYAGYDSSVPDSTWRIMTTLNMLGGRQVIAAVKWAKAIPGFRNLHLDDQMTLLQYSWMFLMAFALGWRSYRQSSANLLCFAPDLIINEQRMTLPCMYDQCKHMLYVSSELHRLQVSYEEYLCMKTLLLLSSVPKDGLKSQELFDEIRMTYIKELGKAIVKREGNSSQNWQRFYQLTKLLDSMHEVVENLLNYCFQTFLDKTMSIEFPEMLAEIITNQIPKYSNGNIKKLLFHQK
In words: Human Glucocorticoid Receptor (GR) Assay, fluorescence polarization. The assay is classed as binding. Conditions: GS Red tracer, incubated 2 h at r.t., XLfit model 205, read-out: GRhuFL_FP_v2 Mean IC50. In outline: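 After 2 h dark incubation at r.t., polarization reported displacement of the GS Red tracer from recombinant GR, in buffer with phosphate, molybdate, EDTA, DTT and Stabilizing Peptide. Controls: dexamethasone (100%) and DMSO (0%).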

pIC50: −log10 of the molar value.

On to `COc1cccc([C@@H](Oc2ccc3c(cnn3-c3ccc(Cl)cc3)c2)[C@H](C)NC(=O)C(F)(F)F)c1` [Example 126, N-((1R,2S)-1-(1-(4-chlorophenyl)-1H-indazol-5-yloxy)-1-(3-methoxyphenyl)propan-2-yl)-2,2,2-trifluoroacetamide], for which the pIC50 was 8.54.
For the compound `C[C@H](NC(=O)C(F)Cl)[C@H](Oc1ccc2c(cnn2-c2ccc(F)cc2)c1)c1ccccc1` (stereo partly drawn) [Example 47, 2-Chloro-2-fluoro-N-[(1R,2S)-1-[1-(4-fluorophenyl)indazol-5-yl]oxy-1-phenyl-propan-2-yl]acetamide], the pIC50 was 8.60.
Take `Cc1ccc(F)cc1[C@@H](Oc1ccc2c(cnn2-c2ccc(F)cc2)c1)[C@H](C)NC(=O)C(F)(F)F` [Example 157, 2,2,2-trifluoro-N-[(1R,2S)-1-(5-fluoro-2-methyl-phenyl)-1-[1-(4-fluorophenyl)indazol-5-yl]oxy-propan-2-yl]acetamide]: the pIC50 was 8.28.
Turning to `CSc1ccc([C@@H](Oc2ccc3c(cnn3-c3ccc(F)cc3)c2)[C@H](C)NC(=O)COC(C)=O)cc1` [Example 10, N-[(1R,2S)-1-[1-(4-fluorophenyl)indazol-5-yl]oxy-1-(4-methylsulfanylphenyl)propan-2-yl]carbamoylmethyl acetate], the pIC50 was 8.62.
As for `C[C@H](NC(=O)C(C)(C)C)[C@H](Oc1ccc2c(cnn2-c2ccc(F)cc2)c1)c1cccc(Cl)c1` [Example 178, N-[(1R,2S)-1-(3-chlorophenyl)-1-[1-(4-fluorophenyl)indazol-5-yl]oxy-propan-2-yl]-2,2-dimethyl-propanamide], the negative-log IC50 (pIC50) is 8.41.
Consider `Cc1cnc(C(=O)N[C@@H](C)[C@H](Oc2ccc3c(cnn3-c3ccc(F)cc3)c2)c2cccc(F)c2)s1` [Example 195, N-[(1R,2S)-1-(3-fluorophenyl)-1-[1-(4-fluorophenyl)indazol-5-yl]oxy-propan-2-yl]-5-methyl-1,3-thiazole-2-carboxamide], for which the negative-log IC50 (pIC50) was 8.48.
Turning to `C[C@H](NC(=O)CF)[C@H](Oc1ccc2c(cnn2-c2ccc(F)cc2)c1)c1ccccc1` [Example 45, 2-Fluoro-N-[(1R,2S)-1-[1-(4-fluorophenyl)indazol-5-yl]oxy-1-phenyl-propan-2-yl]acetamide], the pIC50 was 8.59.
With `COC(=O)C(=O)N[C@@H](C)[C@H](Oc1ccc2c(cnn2-c2ccc(F)cc2)c1)c1ccccc1` [Example 35, Methyl [(1R,2S)-1-[1-(4-fluorophenyl)indazol-5-yl]oxy-1-phenyl-propan-2-yl]carbamoylformate], the pIC50 is 8.68.
Next, `C[C@H](NC(=O)C(C)(F)F)[C@H](Oc1ccc2c(cnn2-c2ccc(F)cc2)c1)c1ccc(Cl)cc1` [Example 237, N-[(1R,2S)-1-(4-chlorophenyl)-1-[1-(4-fluorophenyl)indazol-5-yl]oxy-propan-2-yl]-2,2-difluoro-propanamide]: 8.08.
`COCC(=O)N[C@@H](C)[C@H](Oc1ccc2c(cnn2-c2ccc(F)cc2)c1)c1ccc(C)c(C)c1` [Example 257, N-[(1R,2S)-1-(3,4-dimethylphenyl)-1-[1-(4-fluorophenyl)indazol-5-yl]oxy-propan-2-yl]-2-methoxy-acetamide]: the pIC50 was 7.89.
Take `Cc1ccc(C)c([C@@H](Oc2ccc3c(cnn3-c3ccc(F)cc3)c2)[C@H](C)NC(=O)C2(C)CC2)c1` [Example 215, N-[(1R,2S)-1-(2,5-dimethylphenyl)-1-[1-(4-fluorophenyl)indazol-5-yl]oxy-propan-2-yl]-1-methyl-cyclopropane-1-carboxamide]: the pIC50 is 8.36.
Turning to `COc1cccc([C@@H](Oc2ccc3c(cnn3-c3ccc(F)cc3)c2)[C@H](C)NC(=O)c2cocn2)c1` [Example 85, N-((1R,2S)-1-(1-(4-fluorophenyl)-1H-indazol-5-yloxy)-1-(3-methoxyphenyl)propan-2-yl)oxazole-4-carboxamide], the pIC50 was 8.68.
Regarding `COc1cccc([C@@H](Oc2ccc3c(cnn3-c3ccc(F)cc3)c2)[C@H](C)NC(=O)c2cc3ccccc3s2)c1` [Example 296, N-[(1R,2S)-1-[1-(4-fluorophenyl)indazol-5-yl]oxy-1-(3-methoxyphenyl)propan-2-yl]benzothiophene-2-carboxamide], the pIC50 was 8.40.
For the compound `COc1c(C)cc([C@@H](Oc2ccc3c(cnn3-c3ccc(F)cc3)c2)[C@H](C)NC(=O)c2ncc(C)s2)cc1C` [Example 203, N-[(1R,2S)-1-[1-(4-fluorophenyl)indazol-5-yl]oxy-1-(4-methoxy-3,5-dimethyl-phenyl)propan-2-yl]-5-methyl-1,3-thiazole-2-carboxamide], the pIC50 was 8.27.
Regarding `Cc1ccc([C@@H](Oc2ccc3c(cnn3-c3ccc(F)cc3)c2)[C@H](C)NC(=O)C(C)(C)C)cc1C` [Example 171, N-[(1R,2S)-1-(3,4-dimethylphenyl)-1-[1-(4-fluorophenyl)indazol-5-yl]oxy-propan-2-yl]-2,2-dimethyl-propanamide], the pIC50 was 8.25.
Consider `CCC(=O)N[C@@H](C)[C@H](Oc1ccc2c(cnn2-c2ccc(F)cc2)c1)c1ccccc1` [Example 3, N-((1S,2R)-2-{[1-(4-fluorophenyl)-1H-indazol-5-yl]oxy}-1-methyl-2-phenylethyl)propanamide], for which the pIC50 is 8.49.
For `CC(=O)OCC(=O)N[C@@H](C)[C@H](Oc1ccc2c(cnn2-c2ccc(F)cc2)c1)c1ccccc1` [Example 34, [(1R,2S)-1-[1-(4-fluorophenyl)indazol-5-yl]oxy-1-phenyl-propan-2-yl]carbamoylmethyl acetate], the pIC50 is 8.62.
Next, `CCOC(=O)CNC(=O)N[C@@H](C)[C@H](Oc1ccc2c(cnn2-c2ccc(F)cc2)c1)c1ccccc1` [Example 106, Ethyl N-{[(1S,2R)-2-{[1-(4-fluorophenyl)-1H-indazole-5-yl]oxy}-1-methyl-2-phenylethyl]carbamoyl}glycinate]: 8.43.
Turning to `COc1cccc([C@@H](Oc2cc3cnn(-c4ccc(F)cc4)c3cc2C)[C@H](C)NC(=O)CO)c1` [Example 67, N-[(1R,2S)-1-[1-(4-Fluorophenyl)-6-methyl-indazol-5-yl]oxy-1-(3-methoxyphenyl)propan-2-yl]-2-hydroxy-acetamide], the pIC50 was 8.39.
With `COCC(=O)N[C@@H](C)[C@H](Oc1ccc2c(cnn2-c2ccc(F)cc2)c1)c1ccc(C(F)(F)F)cc1` [Example 59, N-[(1R,2S)-1-[1-(4-fluorophenyl)indazol-5-yl]oxy-1-[4-(trifluoromethyl)phenyl]propan-2-yl]-2-methoxy-acetamide], the negative-log IC50 (pIC50) was 8.48.
Next, `COc1cccc([C@@H](Oc2ccc3c(cnn3-c3ccc(F)cc3)c2)[C@H](C)NC(=O)c2ncc(C)s2)c1` [Example 274, N-[(1R,2S)-1-[1-(4-fluorophenyl)indazol-5-yl]oxy-1-(3-methoxyphenyl)propan-2-yl]-5-methyl-1,3-thiazole-2-carboxamide]: 8.41; `C[C@H](NC(=O)C(C)(C)C)[C@H](Oc1ccc2c(cnn2-c2ccc(F)cc2)c1)c1ccccc1Cl` [Example 300, N-((1R,2S)-1-(2-chlorophenyl)-1-(1-(4-fluorophenyl)-1H-indazol-5-yloxy)propan-2-yl)pivalamide]: 8.62.
